For one experiment, the target named is Adrenergic beta1 (Homo sapiens, UniProt P08588). Briefly: PDSP binding screen. To be noted: for inhibition at 10 µM: read-out: Ki (nM) or % inhibition at 10 µM: beta1.
The target in a further experiment is T1, Muscarinic M2 (Homo sapiens, UniProt P08172).
T1 sequence (P08172 1-466): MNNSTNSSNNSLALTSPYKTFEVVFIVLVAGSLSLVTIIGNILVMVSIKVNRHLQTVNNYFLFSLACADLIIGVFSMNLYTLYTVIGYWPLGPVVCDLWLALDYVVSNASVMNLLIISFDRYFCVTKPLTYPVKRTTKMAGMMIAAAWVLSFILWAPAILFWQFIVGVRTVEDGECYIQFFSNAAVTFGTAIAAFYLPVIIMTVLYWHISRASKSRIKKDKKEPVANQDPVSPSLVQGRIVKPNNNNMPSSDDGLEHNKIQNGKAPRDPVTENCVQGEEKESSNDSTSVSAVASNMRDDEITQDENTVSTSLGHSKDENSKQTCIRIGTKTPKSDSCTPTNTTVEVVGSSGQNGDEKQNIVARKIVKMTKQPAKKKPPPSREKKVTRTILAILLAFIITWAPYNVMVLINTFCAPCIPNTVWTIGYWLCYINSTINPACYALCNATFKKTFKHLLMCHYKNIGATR
Briefly: PDSP binding screen. To be noted: for inhibition at 10 µM: read-out: Ki (nM) or % inhibition at 10 µM: M2.

A further experiment has as its target T2, Serotonin 5-HT1E (Homo sapiens, UniProt P28566).
T2 construct: Psychoactive Drug Screening Program (PDSP)
In words: PDSP binding screen. To be noted: read-out: Ki (nM) or % inhibition at 10 µM: 5-HT1E. The text has this: (§1) Based on the results in the dopamine receptor radioligand binding assays, nine flexible-based compounds were selected for further evaluation for off-target binding with other GPCRs through the Psychoactive Drug Screening Program (PDSP) (Supplemental Table S2). […] For example, many of the N-aryl piperazine-based analogs that our group developed in the past for either the D2 or D3 receptor had high affinity for the 5-HT1A receptor [55, 56, 57, 58]. […] This mitochondrial-based protein is typically used as a target for imaging neuroinflammation. The results of the PDSP-binding assays also confirmed the data obtained in our lab for the binding of this panel of nine compounds to D2 and D3 receptors (Supplemental Table S2).

The target of experiment [1] is T3, Serotonin transporter (SERT) (Homo sapiens, UniProt P31645).
T3 construct: Psychoactive Drug Screening Program (PDSP)
Briefly: PDSP binding screen. To be noted: for inhibition at 10 µM: read-out: Ki (nM) or % inhibition at 10 µM: Serotonin transporter (SERT); for Ki: PDSP, HCl salts.
Excerpt: as §1

For the next experiment, the target named is T4, Serotonin 5-HT5A (Homo sapiens, UniProt P47898).
T4 construct: Psychoactive Drug Screening Program (PDSP)
In words: PDSP binding screen. To be noted: read-out: Ki (nM) or % inhibition at 10 µM: 5-HT5A.
Excerpt: as §1

For a further experiment, the target named is T5, Opioid DOR (Homo sapiens, UniProt P41143).
T5 construct: Psychoactive Drug Screening Program (PDSP)
Briefly: PDSP binding screen. To be noted: read-out: Ki (nM) or % inhibition at 10 µM: DOR.
Excerpt: as §1

The target in a further experiment is T6, Muscarinic M5 (Homo sapiens, UniProt P08912).
T6 sequence (P08912 1-532): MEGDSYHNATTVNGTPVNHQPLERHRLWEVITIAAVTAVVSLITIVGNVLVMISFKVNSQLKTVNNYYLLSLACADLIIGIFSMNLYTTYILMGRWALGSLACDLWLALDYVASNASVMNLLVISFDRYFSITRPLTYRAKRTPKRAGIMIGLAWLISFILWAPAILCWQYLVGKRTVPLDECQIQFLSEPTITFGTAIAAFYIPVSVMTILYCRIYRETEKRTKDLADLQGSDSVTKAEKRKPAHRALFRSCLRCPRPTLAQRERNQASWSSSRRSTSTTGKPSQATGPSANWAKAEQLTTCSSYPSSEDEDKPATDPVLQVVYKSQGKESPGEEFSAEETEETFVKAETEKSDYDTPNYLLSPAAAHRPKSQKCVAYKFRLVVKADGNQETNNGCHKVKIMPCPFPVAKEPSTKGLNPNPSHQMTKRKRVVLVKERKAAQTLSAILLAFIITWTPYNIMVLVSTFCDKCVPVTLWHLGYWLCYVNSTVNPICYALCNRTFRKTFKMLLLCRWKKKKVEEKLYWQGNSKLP
In words: PDSP binding screen. To be noted: for inhibition at 10 µM: read-out: Ki (nM) or % inhibition at 10 µM: M5.

Another experiment deals with human D3 receptors (Homo sapiens, UniProt P35462). In words: Radioligand binding assay with [125I]IABN, D3 receptor. Set-up: expressed in transfected cells; host or cells: HEK293. To be noted: for Ki: D3 receptors expressed in HEK cells, mean ± SEM, three experiments, HCl salts; for D2/D3: selectivity ratio of Ki D2 / Ki D3 (fold). As for the experimental part: Two different assays were used to evaluate the properties of the analogs described above. The receptor binding affinity was measured by radioligand binding assays using [^125I]IABN with D2 or D3 receptors highly expressed HEK293 cells. The functional activity of the analogs was determined using a β-arrestin recruitment assay. The assay was initially conducted in agonist binding mode to confirm that they function as antagonists at the D3 receptor. Once this efficacy was confirmed, the assay was conducted in antagonist mode to determine the ability of the antagonist to compete with dopamine at the D3 receptor. The results of the antagonist mode assay are reported as IC50 values.
Ki values for D2 and D3 receptors were measured using [^125I]IABN in human D2 and D3 receptors expressed in HEK cells, respectively. A filtration binding assay was used to characterize membrane-associated receptor binding properties. The details for the procedures were described in the literature.

Another experiment deals with GABAA. Briefly: PDSP binding screen. To be noted: HCl salts.
[2] abbreviates: [125I]IABN, read-out: Ki ± SEM (nM) D3.

Like-named read-outs stand apart in the source and are kept apart here.

T3 sequence (P31645 whole entry, species assumed): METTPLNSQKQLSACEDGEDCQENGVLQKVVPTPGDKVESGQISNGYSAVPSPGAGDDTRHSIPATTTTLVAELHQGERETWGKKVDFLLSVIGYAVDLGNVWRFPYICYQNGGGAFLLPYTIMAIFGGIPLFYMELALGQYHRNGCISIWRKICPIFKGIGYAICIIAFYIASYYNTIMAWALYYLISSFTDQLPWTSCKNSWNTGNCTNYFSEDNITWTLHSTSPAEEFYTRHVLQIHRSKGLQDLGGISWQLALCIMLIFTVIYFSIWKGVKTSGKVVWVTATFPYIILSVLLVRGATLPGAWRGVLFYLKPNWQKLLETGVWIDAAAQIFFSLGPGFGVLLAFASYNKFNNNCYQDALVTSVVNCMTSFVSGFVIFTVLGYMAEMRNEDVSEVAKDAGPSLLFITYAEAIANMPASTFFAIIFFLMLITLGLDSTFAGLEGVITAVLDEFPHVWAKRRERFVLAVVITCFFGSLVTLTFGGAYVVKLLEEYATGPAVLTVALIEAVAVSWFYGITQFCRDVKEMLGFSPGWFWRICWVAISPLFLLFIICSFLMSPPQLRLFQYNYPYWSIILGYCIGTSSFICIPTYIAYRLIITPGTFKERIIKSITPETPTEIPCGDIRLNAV
T5 sequence (P41143 whole entry): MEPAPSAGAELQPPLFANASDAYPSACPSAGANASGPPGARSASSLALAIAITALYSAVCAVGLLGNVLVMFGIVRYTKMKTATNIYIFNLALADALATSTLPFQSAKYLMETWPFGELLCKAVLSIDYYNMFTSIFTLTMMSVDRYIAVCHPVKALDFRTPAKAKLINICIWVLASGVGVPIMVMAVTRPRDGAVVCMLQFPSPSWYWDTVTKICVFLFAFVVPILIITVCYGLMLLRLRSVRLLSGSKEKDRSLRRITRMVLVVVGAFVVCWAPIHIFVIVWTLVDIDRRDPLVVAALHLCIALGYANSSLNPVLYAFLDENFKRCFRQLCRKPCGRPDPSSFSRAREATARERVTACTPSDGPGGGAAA
T4 sequence (P47898 whole entry): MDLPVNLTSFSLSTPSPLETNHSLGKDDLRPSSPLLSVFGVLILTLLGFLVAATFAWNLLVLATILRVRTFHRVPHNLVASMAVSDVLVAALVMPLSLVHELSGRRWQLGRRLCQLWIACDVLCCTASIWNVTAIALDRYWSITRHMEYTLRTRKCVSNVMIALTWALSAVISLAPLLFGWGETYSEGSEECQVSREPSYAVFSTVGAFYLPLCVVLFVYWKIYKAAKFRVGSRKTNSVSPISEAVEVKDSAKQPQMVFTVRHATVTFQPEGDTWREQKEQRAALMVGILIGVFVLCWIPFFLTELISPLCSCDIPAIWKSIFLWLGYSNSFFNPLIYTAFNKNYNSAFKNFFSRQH
human D3 receptors, sequence (P35462 whole entry): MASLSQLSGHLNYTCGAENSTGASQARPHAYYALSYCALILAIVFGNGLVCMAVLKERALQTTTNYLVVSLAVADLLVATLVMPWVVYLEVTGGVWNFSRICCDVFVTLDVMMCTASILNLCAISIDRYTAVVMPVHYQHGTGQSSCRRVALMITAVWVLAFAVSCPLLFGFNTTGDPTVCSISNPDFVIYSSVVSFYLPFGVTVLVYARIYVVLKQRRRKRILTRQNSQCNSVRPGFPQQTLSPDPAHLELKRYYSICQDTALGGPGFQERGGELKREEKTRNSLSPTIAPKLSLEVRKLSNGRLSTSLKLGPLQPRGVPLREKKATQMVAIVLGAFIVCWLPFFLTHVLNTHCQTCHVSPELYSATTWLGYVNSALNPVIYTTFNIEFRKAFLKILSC
Adrenergic beta1, sequence (P08588 whole entry): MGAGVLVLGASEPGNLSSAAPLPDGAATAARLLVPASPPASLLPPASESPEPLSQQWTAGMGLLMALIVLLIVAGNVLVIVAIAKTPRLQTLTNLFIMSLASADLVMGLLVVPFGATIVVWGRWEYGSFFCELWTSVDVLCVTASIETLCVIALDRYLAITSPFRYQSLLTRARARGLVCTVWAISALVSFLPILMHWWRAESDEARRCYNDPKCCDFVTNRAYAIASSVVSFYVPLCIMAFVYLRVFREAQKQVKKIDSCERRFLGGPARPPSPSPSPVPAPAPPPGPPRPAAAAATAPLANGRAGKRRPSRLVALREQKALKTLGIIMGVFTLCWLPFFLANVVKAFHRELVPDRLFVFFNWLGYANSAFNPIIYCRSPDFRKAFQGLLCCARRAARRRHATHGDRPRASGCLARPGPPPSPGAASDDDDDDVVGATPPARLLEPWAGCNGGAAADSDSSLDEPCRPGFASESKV
T2 sequence (P28566 whole entry): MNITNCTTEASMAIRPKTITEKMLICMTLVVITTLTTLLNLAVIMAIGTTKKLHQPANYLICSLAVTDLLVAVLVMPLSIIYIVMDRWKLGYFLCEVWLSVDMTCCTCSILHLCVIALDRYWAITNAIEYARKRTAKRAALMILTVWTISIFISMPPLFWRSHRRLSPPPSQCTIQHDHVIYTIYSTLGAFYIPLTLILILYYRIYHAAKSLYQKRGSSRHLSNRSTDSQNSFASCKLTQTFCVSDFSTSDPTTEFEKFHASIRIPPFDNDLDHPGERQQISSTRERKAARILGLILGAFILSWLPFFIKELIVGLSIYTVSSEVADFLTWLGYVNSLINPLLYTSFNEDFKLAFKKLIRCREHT

Turning to `CCN(CCCNC(=O)c1ccc(-c2cccs2)cc1)CCNC(=O)c1cc(Br)cc(OC)c1OC` [9a, 5-Bromo-N-(2-(ethyl(3-(4-(thiophen-2-yl)benzamido)propyl)amino)ethyl)-2,3-dimethoxybenzamide], the Ki – broadly, the equilibrium dissociation constant of an inhibitor or competing ligand from its target – at Adrenergic beta1 was 5900 nM; at Muscarinic M2 it was 1200 nM; at Muscarinic M5, 5040 nM; on human D3 receptors (Ki ± SEM (nM) D3, [125I]IABN), 1 ± 0.01 nM. The inhibition at 10 µM (on Serotonin 5-HT1E; in experiment [1]; at Serotonin 5-HT5A; on Opioid DOR) was less than 50% each time. Moreover, the D2/D3 on human D3 receptors turned out to be 169. For the same compound, at GABAA, the “Ki (nM) or % inhibition at 10 µM: GABAA” value is recorded as “N/A (N/A; not active means less than 50% inhibition that was obtained in primary binding assay at 10 µM of the compound)”.
As to `CCCN(CCCNC(=O)c1ccc(-c2cccs2)cc1)CCNC(=O)c1cc(Br)cc(OC)c1OC` [20a, 5-Bromo-2,3-dimethoxy-N-(2-(propyl(3-(4-(thiophen-2-yl)benzamido)propyl)amino)ethyl)benzamide], the Ki on Adrenergic beta1 was found to be 3710 nM; at Muscarinic M2, 4930 nM; in experiment [1], 5850 nM; on human D3 receptors (setting [2]), 2.7 ± 0.4 nM. Also, the inhibition (as a rule, how much of the control response was suppressed) at 10 µM was less than 50% on Serotonin 5-HT1E (PDSP, HCl salts); less than 50% on Serotonin 5-HT5A (PDSP, HCl salts); less than 50% at Opioid DOR; less than 50% on Muscarinic M5. For the same compound, at human D3 receptors, the D2/D3 is on record as 110. Moreover, the “Ki (nM) or % inhibition at 10 µM: GABAA” value on GABAA is reported as “N/A (N/A; not active means less than 50% inhibition that was obtained in primary binding assay at 10 µM of the compound)”.
Regarding `CCN(CCCNC(=O)c1ccc2ccccc2c1)CCNC(=O)c1cc(Br)cc(OC)c1OC` [21a, N-(3-((2-(5-Bromo-2,3-dimethoxybenzamido)ethyl)(ethyl)amino)propyl)-2-naphthamide], the inhibition at 10 µM is less than 50% on Adrenergic beta1; less than 50% at Muscarinic M2; less than 50% on Serotonin 5-HT1E (PDSP, HCl salts); less than 50% on Serotonin 5-HT5A (PDSP, HCl salts); less than 50% at Opioid DOR; less than 50% on Muscarinic M5. Besides, the Ki worked out at 3010 nM in experiment [1] and 1.2 ± 0.2 nM at human D3 receptors (setting [2]). In addition, the D2/D3 at human D3 receptors came out at 141. Further, the “Ki (nM) or % inhibition at 10 µM: GABAA” value at GABAA is on record as “N/A (N/A; not active means less than 50% inhibition that was obtained in primary binding assay at 10 µM of the compound)”.
Regarding `CCN(CCCNC(=O)c1ccc(-c2ccncc2)cc1)CCNC(=O)c1cc(Br)cc(OC)c1OC` [21c, 5-Bromo-N-(2-(ethyl(3-(4-(pyridin-4-yl)benzamido)propyl)amino)ethyl)-2,3-dimethoxybenzamide], the inhibition at 10 µM at Adrenergic beta1 was less than 50%; at Serotonin 5-HT1E (PDSP, HCl salts), less than 50%; in experiment [1] it was less than 50%; on Serotonin 5-HT5A (PDSP, HCl salts) it was less than 50%; at Opioid DOR (PDSP, HCl salts), less than 50%. The Ki was 1660 nM at Muscarinic M2, 2390 nM at Muscarinic M5 and 1.1 ± 0.1 nM at human D3 receptors (setting [2]). The D2/D3 on human D3 receptors is 97.3. Moreover, the “Ki (nM) or % inhibition at 10 µM: GABAA” value on GABAA is recorded as “N/A (N/A; not active means less than 50% inhibition that was obtained in primary binding assay at 10 µM of the compound)”.
Consider `CCN(CCCNC(=O)c1cc2ccccc2[nH]1)CCNC(=O)c1cc(Br)cc(OC)c1OC` [21d, N-(3-((2-(5-Bromo-2,3-dimethoxybenzamido)ethyl)(ethyl)amino)propyl)-1H-indole-2-carboxamide], for which the inhibition at 10 µM on Adrenergic beta1 was less than 50%; at Muscarinic M2 it was less than 50%; on Serotonin 5-HT1E (PDSP, HCl salts), less than 50%; in [1] it was less than 50%; on Serotonin 5-HT5A (PDSP, HCl salts) it was less than 50%; at Opioid DOR it was less than 50%. Besides, the figures for the Ki on Muscarinic M5 and on human D3 receptors (setting [2]) were 4220 nM and 0.8 ± 0.2 nM, respectively. The D2/D3 on human D3 receptors is 180.5. The “Ki (nM) or % inhibition at 10 µM: GABAA” value at GABAA was “N/A (N/A; not active means less than 50% inhibition that was obtained in primary binding assay at 10 µM of the compound)”.
Regarding `CCN(CCCNC(=O)c1cn2ccccc2n1)CCNC(=O)c1cc(Br)cc(OC)c1OC` [21e, N-(3-((2-(5-Bromo-2,3-dimethoxybenzamido)ethyl)(ethyl)amino)propyl)imidazo[1,2-a]pyridine-2-carboxamide], the Ki at Adrenergic beta1 was 6520 nM; at Muscarinic M2, 9440 nM; on human D3 receptors (setting [2]) it was 2.8 ± 0.5 nM. In addition, the inhibition at 10 µM is less than 50% on Serotonin 5-HT1E (PDSP, HCl salts); less than 50% in [1]; less than 50% at Serotonin 5-HT5A (PDSP, HCl salts); less than 50% on Opioid DOR; less than 50% at Muscarinic M5. Besides, the D2/D3 at human D3 receptors was found to be 50.7. Moreover, the “Ki (nM) or % inhibition at 10 µM: GABAA” value on GABAA is given as “N/A (N/A; not active means less than 50% inhibition that was obtained in primary binding assay at 10 µM of the compound)”.
For the compound `CCN(CCCNC(=O)c1ccc(-c2ccsc2)cc1)CCNC(=O)c1cc(Br)cc(OC)c1OC` [21g, 5-Bromo-N-(2-(ethyl(3-(4-(thiophen-3-yl)benzamido)propyl)amino)ethyl)-2,3-dimethoxybenzamide], the Ki on Adrenergic beta1 worked out at 1890 nM; on human D3 receptors (setting [2]), 2.5 ± 0.3 nM. Besides, the inhibition at 10 µM at Muscarinic M2 was less than 50%; at Serotonin 5-HT1E (PDSP, HCl salts), less than 50%; in experiment [1] it was less than 50%; on Serotonin 5-HT5A (PDSP, HCl salts), less than 50%; on Opioid DOR it was less than 50%; on Muscarinic M5, less than 50%. Besides, on human D3 receptors, the D2/D3 turned out to be 125. Further, at GABAA, the “Ki (nM) or % inhibition at 10 µM: GABAA” value is on record as “N/A (N/A; not active means less than 50% inhibition that was obtained in primary binding assay at 10 µM of the compound)”.
In the case of `CCN(CCCNC(=O)c1ccsc1)CCNC(=O)c1cc(Br)cc(OC)c1OC` [21i, N-(3-((2-(5-Bromo-2,3-dimethoxybenzamido)ethyl)(ethyl)amino)propyl)thiophen-e-3-carboxamide], the inhibition at 10 µM at Adrenergic beta1 is less than 50%; on Muscarinic M2, less than 50%; at Serotonin 5-HT1E (PDSP, HCl salts) it was less than 50%; in [1], less than 50%; on Serotonin 5-HT5A (PDSP, HCl salts), less than 50%; on Opioid DOR (PDSP, HCl salts), less than 50%. Moreover, the inhibition at 10 µM at Muscarinic M5 was less than 50%. The inhibition constant (Ki) on human D3 receptors (setting [2]) is 7 ± 0.5 nM. Further, at human D3 receptors, the D2/D3 was determined as 43.4. Further, the “Ki (nM) or % inhibition at 10 µM: GABAA” value at GABAA was “N/A (N/A; not active means less than 50% inhibition that was obtained in primary binding assay at 10 µM of the compound)”.
